Assay results as given in US9062124B2, “GIP-based mixed agonists for treatment of metabolic disorders and obesity” (priority 2008, dated 2015).
Where a SMILES comes first, the peptide text is derived from it. Bridges are numbered along the chain shown (N, C = ends). [ ]: non-standard residue; d: D form. Abu = CC[C@H](N)C(=O)O; Aib = CC(C)(N)C(=O)O

Assays:
Type in all cases: cell-based
GIP receptor = molecular target: T1, GIP receptor (Homo sapiens, UniProt P48546); assay: cAMP synthesis functional assay (firefly luciferase reporter in HEK293 cells), GIP receptor
T1 construct: expressed in transfected cells; host or cells: HEK293
T1 sequence (P48546 22-466): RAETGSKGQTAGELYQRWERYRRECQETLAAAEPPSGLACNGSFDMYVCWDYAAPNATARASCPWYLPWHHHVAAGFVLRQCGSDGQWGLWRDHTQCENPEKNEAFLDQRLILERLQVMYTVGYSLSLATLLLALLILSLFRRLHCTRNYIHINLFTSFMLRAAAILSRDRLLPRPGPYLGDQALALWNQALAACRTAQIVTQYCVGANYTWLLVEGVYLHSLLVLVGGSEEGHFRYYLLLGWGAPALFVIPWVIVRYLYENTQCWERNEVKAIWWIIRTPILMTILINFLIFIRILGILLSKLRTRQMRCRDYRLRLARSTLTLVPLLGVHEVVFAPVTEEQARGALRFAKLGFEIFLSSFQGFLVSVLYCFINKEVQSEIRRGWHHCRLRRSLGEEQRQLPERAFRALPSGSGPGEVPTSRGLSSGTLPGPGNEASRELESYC

glucagon receptor = molecular target: T2, glucagon receptor (Homo sapiens, UniProt P47871); assay: cAMP synthesis functional assay (firefly luciferase reporter in HEK293 cells), glucagon receptor
T2 construct: expressed in transfected cells; host or cells: HEK293
T2 sequence (P47871 26-477): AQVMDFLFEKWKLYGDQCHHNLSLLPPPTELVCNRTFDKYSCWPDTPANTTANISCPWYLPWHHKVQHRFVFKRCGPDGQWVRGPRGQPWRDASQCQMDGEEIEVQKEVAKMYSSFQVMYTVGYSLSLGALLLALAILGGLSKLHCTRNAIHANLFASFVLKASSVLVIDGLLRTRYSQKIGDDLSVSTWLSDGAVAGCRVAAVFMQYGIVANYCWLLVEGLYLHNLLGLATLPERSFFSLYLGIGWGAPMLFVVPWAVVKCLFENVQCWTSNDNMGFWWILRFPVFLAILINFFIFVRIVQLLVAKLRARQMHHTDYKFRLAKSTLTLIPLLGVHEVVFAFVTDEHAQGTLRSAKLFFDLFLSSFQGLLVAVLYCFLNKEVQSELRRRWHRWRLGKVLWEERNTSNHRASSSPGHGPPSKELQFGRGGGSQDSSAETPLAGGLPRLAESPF

[1] = test system: glucagon receptor, GLP-1 receptor or GIP receptor; assay: Agonist profile across receptors assigned from the cAMP reporter assay data; conditions: assigned from the in vitro EC50 data of Tables 1-4
GLP-1 receptor = molecular target: T3, GLP-1 receptor (Homo sapiens, UniProt P43220); assay: cAMP synthesis functional assay (firefly luciferase reporter in HEK293 cells), GLP-1 receptor
T3 construct: expressed in transfected cells; host or cells: HEK293
T3 sequence (P43220 24-463, species assumed): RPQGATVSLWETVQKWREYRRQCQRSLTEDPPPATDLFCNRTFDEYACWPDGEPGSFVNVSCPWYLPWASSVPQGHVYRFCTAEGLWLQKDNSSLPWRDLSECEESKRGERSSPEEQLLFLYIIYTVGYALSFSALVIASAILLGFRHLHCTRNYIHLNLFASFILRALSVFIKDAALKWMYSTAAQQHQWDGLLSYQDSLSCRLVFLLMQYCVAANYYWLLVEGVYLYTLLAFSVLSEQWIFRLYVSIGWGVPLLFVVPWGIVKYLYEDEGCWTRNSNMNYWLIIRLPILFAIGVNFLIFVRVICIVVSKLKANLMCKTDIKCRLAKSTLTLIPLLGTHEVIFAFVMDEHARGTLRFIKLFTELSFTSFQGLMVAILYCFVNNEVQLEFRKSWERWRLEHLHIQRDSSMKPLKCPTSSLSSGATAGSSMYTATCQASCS

[2] = Table 1, relative to the native hormone of the indicated receptor
[3] = relative to the standard (Std.) EC50 of the same run

| Compound | GIP Receptor relative activity (GIP receptor; [2]) | Glucagon Receptor relative activity (glucagon receptor; [2]) | receptor activity profile (glucagon / GLP-1 / GIP agonism) [1] | GLP-1 Receptor relative activity (GLP-1 receptor; [2]) | EC50 (GIP receptor; GIP Receptor EC50, cAMP luciferase reporter assay as in Example 16) | GIP Receptor relative activity (GIP receptor; [3]) | EC50 (glucagon receptor; Glucagon Receptor EC50, cAMP luciferase reporter assay as in Example 16) | Glucagon Receptor relative activity (glucagon receptor; [3]) | EC50 (GLP-1 receptor; GLP-1 Receptor EC50, cAMP luciferase reporter assay as in Example 16) | GLP-1 Receptor relative activity (GLP-1 receptor; [3]) | EC50 (GIP receptor; GIP Receptor EC50, nM, Table 1) | EC50 (glucagon receptor; Glucagon Receptor EC50, nM, Table 1) | EC50 (GLP-1 receptor; GLP-1 Receptor EC50, nM, Table 1) |
| --- | --- | --- | --- | --- | --- | --- | --- | --- | --- | --- | --- | --- | --- |
| CC[C@H](C)[C@H](NC(=O)[C@H](CO)NC(=O)[C@H](Cc1ccc(O)cc1)NC(=O)[C@H](CC(=O)O)NC(=O)[C@H](CO)NC(=O)[C@@H](NC(=O)[C@H](Cc1ccccc1)NC(=O)[C@@H](NC(=O)CNC(=O)[C@H](CCC(N)=O)NC(=O)C(C)(C)NC(=O)[C@@H](N)Cc1ccc(O)cc1)[C@@H](C)O)[C@@H](C)O)C(=O)N[C@@H](Cc1ccc(O)cc1)C(=O)N[C@@H](CC(C)C)C(=O)N[C@@H](CC(=O)O)C(=O)N[C@@H](CCC(=O)O)C(=O)N[C@@H](CCC(=O)O)C(=O)N[C@@H](C)C(=O)N[C@H](C(=O)N[C@@H](CCCNC(=N)N)C(=O)N[C@@H](CC(C)C)C(=O)N[C@@H](Cc1ccccc1)C(=O)N[C@H](C(=O)N[C@@H](CC(N)=O)C(=O)N[C@@H](Cc1c[nH]c2ccccc12)C(=O)N[C@@H](CC(C)C)C(=O)N[C@@H](CC(C)C)C(=O)N[C@@H](C)C(=O)NCC(=O)NCC(=O)N1CCC[C@H]1C(=O)N[C@@H](CO)C(=O)N[C@@H](CO)C(=O)NCC(=O)N[C@@H](C)C(=O)N1CCC[C@H]1C(=O)N1CCC[C@H]1C(=O)N1CCC[C@H]1C(=O)N[C@@H](CO)C(N)=O)C(C)C)C(C)C [mt-201] (H-Y[Aib]QGTFTSDYSIYLDEEAVRLFVNWLLAGGPSSGAPPPS-NH2; N-terminus assumed) | 44.44% | 0.24% | exemplary GLP-1/GIP co-agonist peptides | 191.67% |  |  |  |  |  |  |  |  |  |
| CC[C@H](C)[C@@H]1NC(=O)[C@@H](NC(=O)[C@H](CC(=O)O)NC(=O)[C@H](CC(C)C)NC(=O)[C@H](Cc2ccc(O)cc2)NC(=O)[C@H](CCCCN)NC(=O)[C@H](CO)NC(=O)[C@H](Cc2ccc(O)cc2)NC(=O)[C@H](CC(=O)O)NC(=O)[C@H](CO)NC(=O)[C@@H](NC(=O)[C@H](Cc2ccccc2)NC(=O)[C@@H](NC(=O)CNC(=O)[C@H](CCC(N)=O)NC(=O)[C@H](CO)NC(=O)[C@@H](N)Cc2ccc(O)cc2)[C@@H](C)O)[C@@H](C)O)CCC(=O)NCCCC[C@@H](C(=O)N[C@@H](CC(=O)O)C(=O)N[C@@H](Cc2ccccc2)C(=O)N[C@H](C(=O)N[C@@H](CC(N)=O)C(=O)N[C@@H](Cc2c[nH]c3ccccc23)C(=O)N[C@@H](CC(C)C)C(=O)N[C@@H](CC(C)C)C(=O)N[C@@H](C)C(=O)NCC(=O)NCC(=O)N2CCC[C@H]2C(=O)N[C@@H](CO)C(=O)N[C@@H](CO)C(=O)NCC(=O)N[C@@H](C)C(=O)N2CCC[C@H]2C(=O)N2CCC[C@H]2C(=O)N2CCC[C@H]2C(=O)N[C@@H](CO)C(N)=O)C(C)C)NC(=O)[C@H](CCC(N)=O)NC(=O)[C@H](Cc2c[nH]cn2)NC1=O [mt-116] (H-YSQGTFTSDYSKYLDEIHQKDFVNWLLAGGPSSGAPPPS-NH2; lactam 16-20; N-terminus assumed) | 7.62% | 18.68% | exemplary GIP/glucagon co-agonist peptides | 1.07% |  |  |  |  |  |  |  |  |  |
| CCCCCCCCCCCCCCCC(=O)NCCCC[C@H](NC(=O)[C@@H](NC(=O)[C@H](Cc1ccccc1)NC(=O)[C@H](CCC(=O)O)NC(=O)C(C)(C)NC(=O)[C@H](C)NC(=O)[C@H](C)NC(=O)[C@H](CCC(N)=O)NC(=O)[C@H](CCCCN)NC(=O)[C@H](CC(=O)O)NC(=O)[C@H](CC(C)C)NC(=O)[C@H](Cc1ccc(O)cc1)NC(=O)[C@@H](NC(=O)[C@H](CO)NC(=O)[C@H](Cc1ccc(O)cc1)NC(=O)[C@H](CC(=O)O)NC(=O)[C@H](CO)NC(=O)[C@@H](NC(=O)[C@H](Cc1ccccc1)NC(=O)[C@@H](NC(=O)CNC(=O)[C@H](CCC(=O)O)NC(=O)C(C)(C)NC(=O)[C@@H](N)Cc1ccc(O)cc1)[C@@H](C)O)[C@@H](C)O)[C@@H](C)CC)C(C)C)C(=O)N[C@@H](Cc1c[nH]c2ccccc12)C(=O)N[C@@H](CC(C)C)C(=O)N[C@@H](CC(C)C)C(=O)N[C@@H](C)C(=O)NCC(=O)NCC(=O)N1CCC[C@H]1C(=O)N[C@@H](CO)C(=O)N[C@@H](CO)C(=O)NCC(=O)N[C@@H](C)C(=O)N1CCC[C@H]1C(=O)N1CCC[C@H]1C(=O)N1CCC[C@H]1C(=O)N[C@@H](CO)C(N)=O [mt-266] |  |  | exhibited activity at the GIP, GLP-1, and glucagon receptors |  | 0.164 nM | 5.19% | 18.6 nM | 0.23% | 1.53 nM | 1.15% |  |  |  |
| CC[C@H](C)[C@H](NC(=O)[C@H](CO)NC(=O)[C@H](Cc1ccc(O)cc1)NC(=O)[C@H](CC(=O)O)NC(=O)[C@H](CO)NC(=O)[C@@H](NC(=O)[C@H](Cc1ccccc1)NC(=O)[C@@H](NC(=O)CNC(=O)[C@H](CCC(N)=O)NC(=O)C(C)(C)NC(=O)[C@@H](N)Cc1ccc(O)cc1)[C@@H](C)O)[C@@H](C)CC)C(=O)N[C@@H](Cc1ccc(O)cc1)C(=O)N[C@@H](CC(C)C)C(=O)N[C@@H](CC(=O)O)C(=O)N[C@H]1CCC(=O)NCCCC[C@@H](C(=O)N[C@@H](CCC(=O)O)C(=O)N[C@@H](Cc2ccccc2)C(=O)N[C@H](C(=O)N[C@@H](CS)C(=O)N[C@@H](Cc2c[nH]c3ccccc23)C(=O)N[C@@H](CC(C)C)C(=O)N[C@@H](CC(C)C)C(=O)N[C@@H](C)C(=O)NCC(N)=O)C(C)C)NC(=O)[C@H](C)NC(=O)[C@H](C)NC(=O)[C@H](CCC(N)=O)NC1=O [mt-177] (H-Y[Aib]QGTFISDYSIYLDEQAAKEFVCWLLAG-NH2; lactam 16-20; N-terminus assumed) | 19.30% | 38.95% | exemplary GIP/glucagon co-agonist peptides | 0.10% |  |  |  |  |  |  | 0.114 nM | 0.095 nM | 21 nM |
| CC[C@H](NC(=O)[C@H](Cc1ccccc1)NC(=O)[C@@H](NC(=O)CNC(=O)[C@H](CCC(N)=O)NC(=O)C(C)(C)NC(=O)[C@@H](N)Cc1ccc(O)cc1)[C@@H](C)O)C(=O)N[C@@H](CO)C(=O)N[C@@H](CC(=O)O)C(=O)N[C@@H](Cc1ccc(O)cc1)C(=O)N[C@@H](CO)C(=O)N[C@H](C(=O)N[C@@H](Cc1ccc(O)cc1)C(=O)N[C@@H](CC(C)C)C(=O)N[C@@H](CC(=O)O)C(=O)N[C@@H](CCCCN)C(=O)N[C@@H](CCC(N)=O)C(=O)N[C@@H](C)C(=O)N[C@@H](C)C(=O)NC(C)(C)C(=O)N[C@@H](CCC(=O)O)C(=O)N[C@@H](Cc1ccccc1)C(=O)N[C@H](C(=O)N[C@@H](CC(N)=O)C(=O)N[C@@H](Cc1c[nH]c2ccccc12)C(=O)N[C@@H](CC(C)C)C(=O)N[C@@H](CC(C)C)C(=O)N[C@@H](C)C(=O)NCC(=O)NCC(=O)N1CCC[C@H]1C(=O)N[C@@H](CO)C(=O)N[C@@H](CO)C(=O)NCC(=O)N[C@@H](C)C(=O)N1CCC[C@H]1C(=O)N1CCC[C@H]1C(=O)N1CCC[C@H]1C(=O)N[C@@H](CO)C(=O)N[C@@H](CS)C(N)=O)C(C)C)[C@@H](C)CC [mt-325] (H-Y[Aib]QGTF[Abu]SDYSIYLDKQAA[Aib]EFVNWLLAGGPSSGAPPPSC-NH2; N-terminus assumed) |  |  | exhibited activity at the glucagon and GIP receptors, but not at the GLP-1 receptor |  |  | 111.43% |  | 86.45% |  | 0.83% |  |  |  |
